Holding throughout (test): Antibacterial assay, microtitration MIC (Test A)
What all share (type): cell-based

Experiment [1] relates to E. faecalis MGH-2. As to conditions: Enterococcus faecalis, MGH2, Gram Positive Bacteria; strain MGH-2; read-out: Minimum Inhibitory Concentrations E. faecalis MGH-2. In short, it runs like this:
(§1)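 Growth inhibition of Gram-positive and Gram-negative isolates was assessed by microtitration; values reported are MICs.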

For experiment [2], the system named is S pyogenes C203. As to conditions: Gram Positive Bacteria; strain C203; read-out: Minimum Inhibitory Concentrations S pyogenes C203. In short, it runs like this:
as §1

Experiment [3] relates to S. aureus UC-76. As to conditions: Staphylococcus aureus, UC76, Gram Positive Bacteria; strain UC-76; read-out: Minimum Inhibitory Concentrations S. aureus UC-76. An outline of the steps:
as §1

Experiment [4] relates to S. pneumo SV-1. The following applies: Gram Positive Bacteria; strain SV-1; read-out: Minimum Inhibitory Concentrations S. pneumo SV-1. In short, it runs like this: as §1

Structures are written as SMILES. Converted amounts (≈) assume the structure as drawn.

Regarding `COC[C@H]1CN(c2c(F)cc3c(=O)c(C(=O)O)cn(C4CC4)c3c2C)C[C@H]1CO` [drawing 406], the MIC is 0.125 µg/mL (≈ 0.309 µM) in experiment [1], 0.06 µg/mL (≈ 0.148 µM) in experiment [2], 0.004 µg/mL (≈ 0.00989 µM) in experiment [3] and 0.03 µg/mL (≈ 0.0742 µM) in experiment [4].
With `Cc1c(N2C[C@@H]3C[C@@H](O)[C@@H](O)[C@@H]3C2)c(F)cc2c(=O)c(C(=O)O)cn(C3CC3)c12` [drawing 457], the MIC in experiment [1] worked out at 0.125 µg/mL (≈ 0.311 µM); in experiment [2], 0.125 µg/mL (≈ 0.311 µM); in experiment [3], 0.008 µg/mL (≈ 0.0199 µM); in experiment [4], 0.125 µg/mL (≈ 0.311 µM).
Consider `Cc1c(N2CCC(CCO)C2)c(F)cc2c(=O)c(C(=O)O)cn(C3CC3)c12` (stereo not drawn) [drawing 341], for which the MIC in experiment [1] stood at 2 µg/mL (≈ 5.34 µM); in experiment [2] it was 0.06 µg/mL (≈ 0.16 µM); in experiment [3] it was 0.125 µg/mL (≈ 0.334 µM); in experiment [4], 0.03 µg/mL (≈ 0.0801 µM).
For the compound `Cc1c(N2C[C@@H](COC(=O)C(C)C)[C@@H](COC(=O)C(C)C)C2)c(F)cc2c(=O)c(C(=O)O)cn(C3CC3)c12` [drawing 413], the MIC was 4 µg/mL (≈ 7.54 µM) in experiment [1], 0.25 µg/mL (≈ 0.471 µM) in experiment [2], 1 µg/mL (≈ 1.88 µM) in experiment [3] and 0.125 µg/mL (≈ 0.236 µM) in experiment [4].
In the case of `Cc1c(N2CCC(C(F)(F)CO)C2)c(F)cc2c(=O)c(C(=O)O)cn(C3CC3)c12` (stereo not drawn) [drawing 368], the MIC in experiment [1] is 0.125 µg/mL (≈ 0.305 µM); in experiment [2], 0.25 µg/mL (≈ 0.609 µM); in experiment [3], 0.008 µg/mL (≈ 0.0195 µM); in experiment [4], 0.06 µg/mL (≈ 0.146 µM).
For `Cc1c(N2CCC(C(O)C(C)(F)F)C2)c(F)cc2c(=O)c(C(=O)O)cn(C3CC3)c12` (stereo not drawn) [drawing 369] the same measures were 0.25 µg/mL (≈ 0.589 µM), 0.25 µg/mL (≈ 0.589 µM), 0.004 µg/mL (≈ 0.00942 µM) and 0.125 µg/mL (≈ 0.295 µM).
For `COCCOCC(O)C1CN(c2c(F)cc3c(=O)c(C(=O)O)cn(C4CC4)c3c2C)CC1(C)C` (stereo not drawn) [drawing 433] the same measures were 0.5 µg/mL (≈ 1.05 µM), 1 µg/mL (≈ 2.1 µM), 0.03 µg/mL (≈ 0.063 µM) and 1 µg/mL (≈ 2.1 µM).
For `Cc1c(N2C[C@@H](CO)[C@@H](CO)C2)c(F)cc2c(=O)c(C(=O)O)cn(C3CC3)c12` [drawing 405] the same measures were 0.06 µg/mL (≈ 0.154 µM), 0.06 µg/mL (≈ 0.154 µM), 0.004 µg/mL (≈ 0.0102 µM) and 0.06 µg/mL (≈ 0.154 µM).
For the compound `Cc1c(N2CC(C(C)O)C(C)(C)C2)c(F)cc2c(=O)c(C(=O)O)cn(C3CC3)c12` (stereo not drawn) [drawing 432], the MIC in experiment [1] was 0.06 µg/mL (≈ 0.149 µM); in experiment [2], 0.125 µg/mL (≈ 0.311 µM); in experiment [3], 0.008 µg/mL (≈ 0.0199 µM); in experiment [4], 0.06 µg/mL (≈ 0.149 µM).
For `COc1c(N2C[C@@H](CO)[C@@H](CO)C2)c(F)cc2c(=O)c(C(=O)O)cn(C3CC3)c12` [drawing 403], the MIC in experiment [1] was found to be 0.06 µg/mL (≈ 0.148 µM); in experiment [2], 0.06 µg/mL (≈ 0.148 µM); in experiment [3] it was 0.002 µg/mL (≈ 0.00492 µM); in experiment [4], 0.06 µg/mL (≈ 0.148 µM).
As to `COCC(O)C1CCN(c2c(F)cc3c(=O)c(C(=O)O)cn(C4CC4)c3c2C)C1` (stereo not drawn) [drawing 370], the MIC in experiment [1] amounted to 1 µg/mL (≈ 2.47 µM); in experiment [2], 1 µg/mL (≈ 2.47 µM); in experiment [3], 0.06 µg/mL (≈ 0.148 µM); in experiment [4] it was 0.5 µg/mL (≈ 1.24 µM).
For the compound `Cc1c(N2CC(C(O)CO)C(C)(C)C2)c(F)cc2c(=O)c(C(=O)O)cn(C3CC3)c12` (stereo not drawn) [drawing 434], the MIC in experiment [1] is 0.125 µg/mL (≈ 0.299 µM); in experiment [2], 0.125 µg/mL (≈ 0.299 µM); in experiment [3], 0.008 µg/mL (≈ 0.0191 µM); in experiment [4], 0.125 µg/mL (≈ 0.299 µM).
Turning to `COC[C@@H]1CN(c2c(F)cc3c(=O)c(C(=O)O)cn(C4CC4)c3c2C)C[C@@H]1COC` [drawing 407], the MIC was determined as 0.5 µg/mL (≈ 1.19 µM) in experiment [1], 0.25 µg/mL (≈ 0.597 µM) in experiment [2], 0.03 µg/mL (≈ 0.0717 µM) in experiment [3] and 0.25 µg/mL (≈ 0.597 µM) in experiment [4].
As for `O=C(O)c1cn(-c2ccc(F)cc2F)c2nc(N3C[C@@H](CO)[C@@H](CO)C3)c(F)cc2c1=O` [drawing 398], the MIC was found to be 0.5 µg/mL (≈ 1.11 µM) in experiment [1], 0.5 µg/mL (≈ 1.11 µM) in experiment [2], 0.06 µg/mL (≈ 0.134 µM) in experiment [3] and 0.5 µg/mL (≈ 1.11 µM) in experiment [4].
Consider `COc1c(N2C[C@@H](CO)[C@@H](CO)C2)c(F)c(N)c2c(=O)c(C(=O)O)cn(C3CC3)c12` [drawing 400], for which the MIC in experiment [1] stood at 0.25 µg/mL (≈ 0.593 µM); in experiment [2], 0.25 µg/mL (≈ 0.593 µM); in experiment [3] it was 0.008 µg/mL (≈ 0.019 µM); in experiment [4], 0.125 µg/mL (≈ 0.297 µM).
Consider `COc1c(N2CCC(C(O)C3(O)CC3)C2)c(F)cc2c(=O)c(C(=O)O)cn(C3CC3)c12` (stereo not drawn) [drawing 361], for which the MIC was 0.5 µg/mL (≈ 1.16 µM) in experiment [1], 0.25 µg/mL (≈ 0.578 µM) in experiment [2], 0.015 µg/mL (≈ 0.0347 µM) in experiment [3] and 0.25 µg/mL (≈ 0.578 µM) in experiment [4].
Consider `COc1c(N2CCC(C(O)C(F)F)C2)c(F)cc2c(=O)c(C(=O)O)cn(C3CC3)c12` (stereo not drawn) [drawing 349], for which the MIC in experiment [1] came to 0.125 µg/mL (≈ 0.293 µM); in experiment [2] it was 0.25 µg/mL (≈ 0.586 µM); in experiment [3] it was 0.008 µg/mL (≈ 0.0188 µM); in experiment [4], 0.06 µg/mL (≈ 0.141 µM).
Take `COc1c(N2C[C@]3(CO)CCC[C@]3(CO)C2)c(F)cc2c(=O)c(C(=O)O)cn(C3CC3)c12` [drawing 462]: the MIC in experiment [1] amounted to 0.5 µg/mL (≈ 1.12 µM); in experiment [2], 1 µg/mL (≈ 2.24 µM); in experiment [3] it was 0.15 µg/mL (≈ 0.336 µM); in experiment [4], 0.25 µg/mL (≈ 0.56 µM).

(Values after patent publication US20050107423A1, “Quinolone antibacterial agents” (priority 2003, published 2005).)
